Results taken from patent publication US5407918A, “16-membered macrolide derivatives and process for producing the same” (Meiji Seika Kaisha, Ltd., priority 1992, dated 1995).
≈ marks a conversion by molar mass, not a printed value. Each block holds one molecule with its values, some of them ahead of it.

Legend:
[1] = concentration in serum after oral administration to mice, bioassay; format: in vivo, mice (Jcl:ICR); details: mouse, serum, 200 mg/kg, M. luteus bioassay, read-out: maximum concentration in the serum
Experimental: The compound (3) was mixed with a 0.2% solution of carboxymethylcellulose to give a concentration of 4 mg/ml and a 1 ml portion of the resulting emulsion was orally administered to 4-week-old male Jcl:ICR mice. Blood was collected from armpit of the mice 30, 60, 120, 240 and 360 minutes after the administration of the test compound (n=2). The collected blood was allowed to stand at room temperature for about 2 hours and centrifuged for 20 minutes with a centrifuge (KUBOTA KS-5000P) to obtain serum. To the serum was added an equivalent volume of 50% CH3 CN-50 mM phosphate (1:1 by volume) buffer (pH 7.0). The resulting mixture served as a serum sample. The concentration of the test compound in the serum sample was measured by the following bioassay method.
One hundred […] of the serum sample was poured into a hole made on a test plate containing 40 ml of MRAPJ medium (6 g/l peptone, 3 g/l yeast extract, 1.5 g/l meat extract, 1 g/l glucose and 15 g/l agar, pH 6.5) supplemented with a solution of M. Iuteus ATCC9341 (1%) and incubated at 32° C. for 18 hours and MIC was measured based on the calibration curve. MOM, MDM and RKM were also tested for comparison. […] Thus a long-pending problem of "low concentration in serum" of 16-membered macrolide antibiotics has been solved. […] Thus this compound is considered as a macrolide derivative showing new pharmacokinetics.
Further, a pharmacokinetics test on the compound (12) of the present invention is carried out in the same manner as described above. Namely, 200 mg/kg of the compound (12) is orally administered to mice and the concentration of this compound in the serum is determined by a bioassay method with the use of M. luteus as a test strain. […] The disadvantage of 16-membered ring macrolide antibiotics, which has been pointed out for a long time, has been thus overcome.

E. coli NIHJ JC-2 = test: MIC, agar plate dilution method; format: cell-based; details: Escherichia coli, NIHJJC2; E. coli NIHJ JC-2; 37° C., 20 hours; read-out: Antimicrobial activity (MIC)
How it was run: (§1)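 First, test organisms are precultured in Sensitivity test broth, or on blood agar for Branhamella. Next, 5 μl of suspension (about 10^6 CFU/ml) goes onto horse blood (5%) Sensitivity disk agar. Plates then sit at 37° C for 20 hours before MIC reading.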

M. pneumoniae Mac = test: MIC, agar plate dilution method; format: cell-based; details: Mycoplasmoides pneumoniae, 20 h, read-out: Antimicrobial activity (MIC)
How it was run: as §1

S. Pyogenes Cook = test: MIC, agar plate dilution method; format: cell-based; details: Streptococcus pyogenes, 37° C., 20 hours, read-out: Antimicrobial activity (MIC)
How it was run: (§2)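 Agar plate dilution on Sensitivity disk agar with 5% horse blood; 5 μl inoculum of about 10^6 CFU/ml, Branhamella precultured on blood agar. MIC read after 20 hours at 37° C.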

B. catarrhalis W-0500 = test: MIC, agar plate dilution method; format: cell-based; details: Moraxella catarrhalis, W0500, 37° C., 20 hours, read-out: Antimicrobial activity (MIC)
How it was run: as §1

S. Pneumoniae Type 1 = test: MIC, agar plate dilution method; format: cell-based; details: Streptococcus pneumoniae; S. Pneumoniae Type 1; 37° C., 20 hours; read-out: Antimicrobial activity (MIC)
How it was run: as §2

B. catarrhalis W-0506 = test: MIC, agar plate dilution method; format: cell-based; details: Moraxella catarrhalis, W0506, 37° C., 20 hours, read-out: Antimicrobial activity (MIC)
How it was run: as §1

S. aureus M126 = test: MIC, agar plate dilution method; format: cell-based; details: Staphylococcus aureus; S. aureus M126; 37° C., 20 hours; read-out: Antimicrobial activity (MIC)
How it was run: as §1

S. epidermidis ATCC14990 = test: MIC, agar plate dilution method; format: cell-based; details: Staphylococcus epidermidis, 37° C., 20 hours, read-out: Antimicrobial activity (MIC)
How it was run: as §1

E. faecalis W-73 = test: MIC, agar plate dilution method; format: cell-based; details: Enterococcus faecalis, W73; E. faecalis W-73; 37° C., 20 hours; read-out: Antimicrobial activity (MIC)
How it was run: as §1

H. influenzae 9334 = test: MIC, agar plate dilution method; format: cell-based; details: Haemophilus influenzae; H. influenzae 9334; 37° C., 20 hours; read-out: Antimicrobial activity (MIC)
How it was run: as §2

S. pneumoniae IP692 = test: MIC, agar plate dilution method; format: cell-based; details: Streptococcus pneumoniae; S. pneumoniae IP692; 37° C., 20 hours; read-out: Antimicrobial activity (MIC)
How it was run: as §2

S. aureus MS15027 = test: MIC, agar plate dilution method; format: cell-based; details: Staphylococcus aureus, 37° C., 20 hours, read-out: Antimicrobial activity (MIC)
How it was run: as §1

S. aureus 209P JC-1 = test: MIC, agar plate dilution method; format: cell-based; details: Staphylococcus aureus; S. aureus 209P JC-1; 37° C., 20 hours; read-out: Antimicrobial activity (MIC)
How it was run: as §1

M. pneumoniae Numata = test: MIC, agar plate dilution method; format: cell-based; details: Mycoplasmoides pneumoniae, 20 h, read-out: Antimicrobial activity (MIC)
How it was run: as §1

S. aureus MS15009/pMS98 = test: MIC, agar plate dilution method; format: cell-based; details: Staphylococcus aureus, MS15009/PMS98, 20 h, read-out: Antimicrobial activity (MIC)
How it was run: (§3)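 Using blood-supplemented (5% horse) Sensitivity disk agar, we inoculated 5 μl spots of ~10^6 CFU/ml cultures and scored MIC after incubating 20 hours at 37° C. Broth seed cultures served most strains; Branhamella came from blood agar.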

S. aureus MS15009/pMS99 = test: MIC, agar plate dilution method; format: cell-based; details: Staphylococcus aureus, MS15009/PMS99, 20 h, read-out: Antimicrobial activity (MIC)
How it was run: as §3

S. aureus MS15026 = test: MIC, agar plate dilution method; format: cell-based; details: Staphylococcus aureus, 37° C., 20 hours, read-out: Antimicrobial activity (MIC)
How it was run: as §1

S. aureus M133 = test: MIC, agar plate dilution method; format: cell-based; details: Staphylococcus aureus, 37° C., 20 hours, read-out: Antimicrobial activity (MIC)
How it was run: as §1

K. pneumoniae PC1602 = test: MIC, agar plate dilution method; format: cell-based; details: Klebsiella pneumoniae, 37° C., 20 hours, read-out: Antimicrobial activity (MIC)
How it was run: as §1

M. pneumoniae FH = test: MIC, agar plate dilution method; format: cell-based; details: Mycoplasmoides pneumoniae, 20 h, read-out: Antimicrobial activity (MIC)
How it was run: as §1

M. luteus ATCC9341 = test: MIC, agar plate dilution method; format: cell-based; details: Micrococcus luteus; M. luteus ATCC9341; 37° C., 20 hours; read-out: Antimicrobial activity (MIC)
How it was run: as §1

M. pneumoniae FH-P24 = test: MIC, agar plate dilution method; format: cell-based; details: Mycoplasmoides pneumoniae, FHP24, 20 h; M. pneumoniae FH-P24; read-out: Antimicrobial activity (MIC)
How it was run: as §3

[2] = pharmacokinetics of midecamycins after oral administration to mice; format: in vivo
Source text: First, the present inventors discussed effects of a difference in the structure at the 9-position among midecamycin analogues, from among 16-membered macrolide compounds, on pharmacokinetics. That is to say, midecamycin A1 having a hydroxyl group at the 9-position (Medemycin; MDM) [Journal of Antibiotics, 24 (7), 452 (1971)] and midecamycin A3 having a carbonyl group at the 9-position [ibid., 24 (7), 476 (1971)] were orally administered to animals (mice), followed by observing the pharmacokinetics.

[3] = recovery in urine after oral administration to mice, bioassay; format: in vivo; details: mouse, 200 mg/kg oral (compound (3)), urine 4 and 24 hours
Experimental: Subsequently, 200 mg/kg of the compound (3) was orally administered to three mice in the same manner as described above.
The three mice were put in a metabolic cage MM type (Sugiyamagen Company, Tokyo, Japan) and urine was collected 4 and 24 hours after the administration of the test compound. The collected urine was filtered through a filter having a pore size of 0.45 μm (Millipore) and was mixed with an equivalent volume of 50% CH3CN-50 mM phosphate (1:1 by volume) buffer (pH 6.5) to serve as a urine sample. The bioassay was carried out in the same manner as described above to determine the concentration of the test compound in the urine sample. The recovering in the urine was calculated according to the following equation. [formula]

[4] = Yakugaku Zasshi, 102 (8), 781 (1982); cited from earlier work
esterase = details: in vivo; cited from earlier work

Compound: CCC(=O)O[C@@H]1CC(=O)O[C@H](C)C/C=C/C=C/[C@H](O)[C@H](C)C[C@H](CC=O)[C@H](O[C@@H]2O[C@H](C)[C@@H](O[C@H]3C[C@@](C)(O)[C@@H](OC(=O)CC)[C@H](C)O3)[C@H](N(C)C)[C@H]2O)[C@H]1OC [MDM, midecamycin A1, reference compound]
Cmax [1]: 5200 ng/mL | MIC (E. coli NIHJ JC-2): > 100 µg/mL | MIC (M. pneumoniae Mac): 0.1 µg/mL (≈ 0.123 µM) | MIC (S. Pyogenes Cook): 0.2 µg/mL (≈ 0.246 µM) | MIC (B. catarrhalis W-0500): 3.13 µg/mL (≈ 3.85 µM) | MIC (S. Pneumoniae Type 1): 0.39 µg/mL (≈ 0.479 µM) | MIC (B. catarrhalis W-0506): 1.56 µg/mL (≈ 1.92 µM) | MIC (S. aureus M126): > 100 µg/mL | MIC (S. epidermidis ATCC14990): 1.56 µg/mL (≈ 1.92 µM) | MIC (E. faecalis W-73): 3.13 µg/mL (≈ 3.85 µM) | MIC (H. influenzae 9334): 3.13 µg/mL (≈ 3.85 µM) | MIC (S. pneumoniae IP692): 0.39 µg/mL (≈ 0.479 µM) | MIC (S. aureus MS15027): 0.78 µg/mL (≈ 0.958 µM) | MIC (S. aureus 209P JC-1): 0.39 µg/mL (≈ 0.479 µM) | MIC (M. pneumoniae Numata): 0.05 µg/mL (≈ 0.0614 µM) | MIC (S. aureus MS15009/pMS98): 0.39 µg/mL (≈ 0.479 µM) | MIC (S. aureus MS15009/pMS99): > 100 µg/mL | MIC (S. aureus MS15026): > 100 µg/mL | MIC (S. aureus M133): 0.78 µg/mL (≈ 0.958 µM) | MIC (K. pneumoniae PC1602): > 100 µg/mL | MIC (M. pneumoniae FH): 1.56 µg/mL (≈ 1.92 µM) | MIC (M. luteus ATCC9341): 0.05 µg/mL (≈ 0.0614 µM) | MIC (M. pneumoniae FH-P24): 0.1 µg/mL (≈ 0.123 µM) | recovery in urine compared with midecamycin A3 [2]: superior to midecamycin A3 | sustained concentration in serum compared with midecamycin A3 [2]: superior to midecamycin A3 | dose excreted at 24 h [3]: < 2%

Cmax [1]: 6200 ng/mL | dose excreted at 24 h [3]: < 2%
Compound: CCC(=O)O[C@@H]1CC(=O)O[C@H](C)C/C=C/C=C/[C@H](OC(C)=O)[C@H](C)C[C@H](CC=O)[C@H](O[C@@H]2O[C@H](C)[C@@H](O[C@H]3C[C@@](C)(OC(C)=O)[C@@H](OC(=O)CC)[C@H](C)O3)[C@H](N(C)C)[C@H]2O)[C@H]1OC [MOM, miokamycin, reference compound]
metabolic pattern of the mycarose moiety in human compared with rat [4]: almost the same as that in rat | metabolism of the two acyl groups in the neutral sugar moiety (esterase): removed with esterase in vivo
